The source of these data is patent publication US20240182481A1 (Tango Therapeutics, Inc., priority 2021, published 2024).

One test has as its target USP1-UAF1 (Homo sapiens, UniProt O94782). In words: Ubiquitin Rhodamine assay for USP1-UAF1 activity. The test is classed as biochemical. As for the experimental part:
Certain compounds of the disclosure were assessed for USP1-UAF1 activity in a Ubiquitin Rhodamine assay as described in Example 135.

Test [1] deals with MDA-MB-436 (BRCA1 mutant) cell line. The experiment in a line: Viability assay in BRCA1 mutant cell line MDA-MB-436. Type of test: cell-based. The settings on record: Homo sapiens, MDA-MB-436, viability, BRCA1 mutant MDA-MB-436; read-out: MDA-MB-436 rel IC50. The source says: (§1) Table 1 also indicates IC50 values in a viability assay for a non-isogenic pair of BRCA1 mutant (column 5—MDA-MB-436) and BRCA1 WT (column 6—HCC1954) cell lines. These values indicate the effect of treatment with compound on cell survival.

The subject of test [2] is HCC1954 (BRCA1 WT) cell line. In words: Viability assay in BRCA1 WT cell line HCC1954. The test is classed as cell-based. As to conditions: Homo sapiens, read-out: HCC 1954 IC50 rel IC50.
Source text: as §1

The next test deals with monoubiquitinated PCNA. The experiment in a line: AlphaLISA assay measuring monoubiquitinated PCNA in MDA-MB-436. Type of test: cell-based. As to conditions: Homo sapiens, read-out: Alpha LISA IC50. An excerpt:
Table 1 also indicates IC50 values for exemplary compounds in an AlphaLISA assay measuring monoubiquitinated PCNA in a BRCA1 mutant cell line (MDA-MB-436; column 7).
(In general: Bead proximity is the source of the signal in Alpha formats.)

Some results are limits rather than exact numbers.

The IC50 is the point on the concentration scale where inhibition reaches its midpoint.

USP1-UAF1, sequence (O94782 whole entry): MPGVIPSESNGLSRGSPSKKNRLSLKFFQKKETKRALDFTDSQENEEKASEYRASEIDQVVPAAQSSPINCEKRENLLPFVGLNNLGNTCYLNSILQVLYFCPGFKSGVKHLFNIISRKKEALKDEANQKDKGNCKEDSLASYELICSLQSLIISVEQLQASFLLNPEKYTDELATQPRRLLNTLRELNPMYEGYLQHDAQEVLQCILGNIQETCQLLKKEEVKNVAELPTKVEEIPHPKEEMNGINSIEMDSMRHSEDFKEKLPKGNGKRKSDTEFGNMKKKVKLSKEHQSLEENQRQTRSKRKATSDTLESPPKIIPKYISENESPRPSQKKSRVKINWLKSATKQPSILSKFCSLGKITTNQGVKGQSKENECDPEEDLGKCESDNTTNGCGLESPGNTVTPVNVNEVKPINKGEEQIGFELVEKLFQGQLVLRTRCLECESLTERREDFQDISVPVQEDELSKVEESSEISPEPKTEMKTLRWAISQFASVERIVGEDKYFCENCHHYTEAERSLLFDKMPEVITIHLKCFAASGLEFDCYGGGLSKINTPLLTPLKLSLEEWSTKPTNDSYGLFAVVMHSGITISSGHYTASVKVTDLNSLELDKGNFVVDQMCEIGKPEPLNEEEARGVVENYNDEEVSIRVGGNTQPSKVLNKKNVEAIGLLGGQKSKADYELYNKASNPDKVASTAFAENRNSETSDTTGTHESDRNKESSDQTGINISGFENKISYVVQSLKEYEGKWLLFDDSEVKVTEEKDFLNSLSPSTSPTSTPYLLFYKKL
USP1-UAF1, sequence (Q8TAF3 whole entry partner): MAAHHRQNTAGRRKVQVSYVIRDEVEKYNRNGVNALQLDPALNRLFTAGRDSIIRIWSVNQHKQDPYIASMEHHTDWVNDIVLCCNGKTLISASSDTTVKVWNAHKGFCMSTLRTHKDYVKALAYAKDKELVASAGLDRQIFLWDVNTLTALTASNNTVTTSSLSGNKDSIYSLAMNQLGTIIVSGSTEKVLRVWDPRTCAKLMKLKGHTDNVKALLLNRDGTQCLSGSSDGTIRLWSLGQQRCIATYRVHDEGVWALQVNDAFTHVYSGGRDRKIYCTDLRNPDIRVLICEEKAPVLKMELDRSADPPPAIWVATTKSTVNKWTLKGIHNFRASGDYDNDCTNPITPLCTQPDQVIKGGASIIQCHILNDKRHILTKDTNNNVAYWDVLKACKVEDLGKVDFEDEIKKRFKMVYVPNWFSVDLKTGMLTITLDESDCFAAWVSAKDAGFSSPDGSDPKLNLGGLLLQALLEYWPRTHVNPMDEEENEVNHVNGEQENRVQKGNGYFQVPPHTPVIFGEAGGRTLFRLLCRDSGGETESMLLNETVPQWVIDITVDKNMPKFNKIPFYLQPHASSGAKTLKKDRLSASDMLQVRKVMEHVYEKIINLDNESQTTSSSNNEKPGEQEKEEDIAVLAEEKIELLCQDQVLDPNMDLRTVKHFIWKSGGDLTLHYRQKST

Turning to `CC(C)c1ccccc1-c1ncc2[nH]cc(Oc3ccc(-c4nc(C(F)(F)F)cn4C)cc3)c2n1` [Compound 2, 2-(2-isopropylphenyl)-7-[4-[1-methyl-4-(trifluoromethyl)imidazol-2-yl]phenoxy]-5H-pyrrolo[3,2-d]pyrimidine], the IC50 on USP1-UAF1 was 30 to 100 nM; in test [1], 100 to 250 nM; in test [2], ≥ 10000 nM; in the test with monoubiquitinated PCNA it was < 100 nM.

As for `COc1ncnc(C2CC2)c1-c1nc(C(F)(F)F)c2[nH]nc(Cc3ccc(-c4nc(C(F)(F)F)cn4C)cc3)c2n1` [Compound 114, 5-(4-cyclopropyl-6-methoxy-pyrimidin-5-yl)-3-[[4-[1-methyl-4-(trifluoromethyl)imidazol-2-yl]phenyl]methyl]-7-(trifluoromethyl)-1H-pyrazolo[4,3-d]pyrimidine], the IC50 at USP1-UAF1 was < 30 nM; in test [1] it was < 100 nM; in test [2], ≥ 10000 nM; in the test on monoubiquitinated PCNA, < 100 nM.

For `COc1ncnc(C2CC2)c1-c1cc2c(Oc3ccc(-c4nc(C(F)(F)F)cn4C)cc3)c[nH]c2cn1` [Compound 167, 5-(4-cyclopropyl-6-methoxy-pyrimidin-5-yl)-3-[4-[1-methyl-4-(trifluoromethyl)imidazol-2-yl]phenoxy]-1H-pyrrolo[2,3-c]pyridine], the IC50 at USP1-UAF1 is 30 to 100 nM; in test [1] it was < 100 nM; in test [2], ≥ 10000 nM; with monoubiquitinated PCNA it was < 100 nM.

With `COc1ncnc(C2CC2)c1-c1ncc2[nH]cc(Cc3ccc(-n4nc(C(F)(F)F)cc4C)c(F)c3)c2n1` [Compound 88, 2-(4-cyclopropyl-6-methoxy-pyrimidin-5-yl)-7-[[3-fluoro-4-[5-methyl-3-(trifluoromethyl)pyrazol-1-yl]phenyl]methyl]-5H-pyrrolo[3,2-d]pyrimidine], the IC50 was < 30 nM at USP1-UAF1, < 100 nM in test [1], ≥ 10000 nM in test [2] and < 100 nM in the test with monoubiquitinated PCNA.

Consider `COc1ncnc(C2CC2)c1-c1ncc2[nH]nc(Cc3ccc(-c4nc(C(F)(F)F)cn4C)cc3F)c2n1` [Compound 189, 5-(4-cyclopropyl-6-methoxy-pyrimidin-5-yl)-3-[[2-fluoro-4-[1-methyl-4-(trifluoromethyl)imidazol-2-yl]phenyl]methyl]-1H-pyrazolo[4,3-d]pyrimidine], for which the IC50 against USP1-UAF1 was 30 to 100 nM; in test [1], < 100 nM; in test [2], ≥ 10000 nM; with monoubiquitinated PCNA, < 100 nM.

Regarding `CN(C)c1ncccc1-c1ncc2[nH]cc(Cc3ccc(-c4nc(C(F)(F)F)cn4C)cc3)c2n1` [Compound 29, N,N-dimethyl-3-[7-[[4-[1-methyl-4-(trifluoromethyl)imidazol-2-yl]phenyl]methyl]-5H-pyrrolo[3,2-d]pyrimidin-2-yl]pyridin-2-amine], the IC50 is 100 to 10000 nM against USP1-UAF1, 250 to 10000 nM in test [1], ≥ 10000 nM in test [2] and 250 to 10000 nM in the test with monoubiquitinated PCNA.

With `COc1ccnc(C2CC2)c1-c1ncc2[nH]cc(Cc3ccc(-c4nc(C(F)(F)F)cn4C)cc3)c2n1` [Compound 161], the IC50 at USP1-UAF1 was 30 to 100 nM; in test [1], < 100 nM; in test [2], ≥ 10000 nM; in the test on monoubiquitinated PCNA it was 100 to 250 nM.

As for `COc1nccc(C2CC2)c1-c1ncc2[nH]cc(Cc3ccc(-c4nc(C(F)(F)F)cn4C)cc3)c2n1` [Compound 152, 2-(4-cyclopropyl-2-methoxy-3-pyridyl)-7-[[4-[1-methyl-4-(trifluoromethyl)imidazol-2-yl]phenyl]methyl]-5H-pyrrolo[3,2-d]pyrimidine], the IC50 against USP1-UAF1 is < 30 nM; in test [1], < 100 nM; in test [2] it was ≥ 10000 nM; with monoubiquitinated PCNA, < 100 nM.

With `COc1ncnc(C2CC2)c1-c1nc(OC)c2[nH]cc(Cc3ccc(-c4nc(C(F)(F)F)cn4C)cc3)c2n1` [Compound 160], the IC50 against USP1-UAF1 lay within 100 to 10000 nM; in test [1], 100 to 250 nM; in test [2], 250 to 10000 nM; with monoubiquitinated PCNA it was 250 to 10000 nM.

`[2H]C([2H])([2H])n1cc(C(F)(F)F)nc1-c1ccc(Cc2n[nH]c3cnc(-c4c(OC)ncnc4C4CC4)nc23)cc1` [Compound 97, 5-(4-cyclopropyl-6-methoxy-pyrimidin-5-yl)-3-[[4-[1-(trideuteriomethyl)-4-(trifluoromethyl)imidazol-2-yl]phenyl]methyl]-1H-pyrazolo[4,3-d]pyrimidine]: the IC50 on USP1-UAF1 is < 30 nM; in test [1] it was < 100 nM; in test [2], ≥ 10000 nM; with monoubiquitinated PCNA it was < 100 nM.

As for `COc1ncnc(C2CC2)c1-c1ncc2[nH]c(C)c(C(O)c3ccc(-c4nc(C(F)(F)F)cn4C)cc3)c2n1` (stereo not shown) [Compound 207, [2-(4-cyclopropyl-6-methoxy-pyrimidin-5-yl)-6-methyl-5H-pyrrolo[3,2-d]pyrimidin-7-yl]-[4-[1-methyl-4-(trifluoromethyl)imidazol-2-yl]phenyl]methanol], the IC50 is 100 to 10000 nM against USP1-UAF1, 250 to 10000 nM in test [1], ≥ 10000 nM in test [2] and 250 to 10000 nM in the test with monoubiquitinated PCNA.

As to `COCc1[nH]c2cnc(-c3c(OC)ncnc3C3CC3)nc2c1Cc1ccc(-c2nc(C(F)(F)F)cn2C)cc1` [Compound 94, 2-(4-cyclopropyl-6-methoxy-pyrimidin-5-yl)-6-(methoxymethyl)-7-[[4-[1-methyl-4-(trifluoromethyl)imidazol-2-yl]phenyl]methyl]-5H-pyrrolo[3,2-d]pyrimidine], the IC50 on USP1-UAF1 was < 30 nM; in test [1], < 100 nM; in test [2] it was ≥ 10000 nM; in the test with monoubiquitinated PCNA, < 100 nM.

For the molecule `Cn1cc(C(F)(F)F)nc1-c1ccc(Cc2c[nH]c3cnc(-c4cccnc4C4CC4)cc23)cc1` [Compound 66, 2-cyclopropyl-3-[3-([4-[1-methyl-4-(trifluoromethyl)imidazol-2-yl]phenyl]methyl)-1H-pyrrolo[2,3-c]pyridin-5-yl]pyridine], the half-inhibitory concentration (IC50) was 30 to 100 nM against USP1-UAF1, 100 to 250 nM in test [1], 250 to 10000 nM in test [2] and < 100 nM in the test on monoubiquitinated PCNA.
